Data on two molecules can be found in ChEMBL document CHEMBL3232945 (Eur J Med Chem, 2014).

Series [1] has as its system Rattus norvegicus. The series is described as follows: Antihypertensive activity in Wistar rat assessed as mean arterial pressure at 10 mg/kg, ip measured immediately at 0 min (reference value: 194.08 +/- 1.962 mmHg). It is filed as functional, Artery. Particulars: route intraperitoneal.
Series [2] has as its system Rattus norvegicus. Description: Antihypertensive activity in Wistar rat assessed as mean arterial pressure at 10 mg/kg, ip measured immediately at 15 mins (reference value: 195.68 +/- 1.623 mmHg). It is filed as functional, Artery. Conditions: route intraperitoneal.
The test system of series [3] is Rattus norvegicus. Description: Antihypertensive activity in Wistar rat assessed as mean arterial pressure at 10 mg/kg, ip measured immediately at 30 mins (reference value: 194.72 +/- 1.002 mmHg). In kind it is functional, Artery. Particulars: route intraperitoneal.
Series [4] relates to Rattus norvegicus. Description: Antihypertensive activity in Wistar rat assessed as mean arterial pressure at 10 mg/kg, ip measured immediately at 45 mins (reference value: 193.96 +/- 0.865 mmHg). In kind it is functional, Artery. Conditions: route intraperitoneal.
Series [5] has as its system Rattus norvegicus. Description: Antihypertensive activity in Wistar rat assessed as mean arterial pressure at 10 mg/kg, ip measured immediately at 60 mins (reference value: 195.11 +/- 0.531 mmHg). Conditions: route intraperitoneal. It is filed as functional, Artery.
In series [6] the test system is Rattus norvegicus. The series is described as follows: Toxicity in […] normotensive Wistar rat assessed as mean arterial pressure at 10 mg/kg, ip measured immediately at 0 min (reference value: 94.21 +/- 2.065 mmHg). It is filed as organism-based, Artery. Conditions: in vivo, 0 h. Further details: dose 10 mg/kg, route intraperitoneal.
Series [7] concerns Rattus norvegicus. Description: Toxicity in […] normotensive Wistar rat assessed as mean arterial pressure at 10 mg/kg, ip after 15 mins (reference value: 93.81 +/- 1.543 mmHg). In kind it is organism-based, Artery. Details: dose 10 mg/kg, route intraperitoneal. Particulars: in vivo, 0.25 h.
Series [8] deals with Rattus norvegicus. Description: Toxicity in […] normotensive Wistar rat assessed as mean arterial pressure at 10 mg/kg, ip after 30 mins (reference value: 94.68 +/- 1.213 mmHg). Particulars: in vivo, 0.5 h. Details: dose 10 mg/kg, route intraperitoneal. It is filed as organism-based, Artery.
The subject of series [9] is Rattus norvegicus. The series is described as follows: Toxicity in […] normotensive Wistar rat assessed as mean arterial pressure at 10 mg/kg, ip after 45 mins (reference value: 94.83 +/- 0.943 mmHg). Conditions: in vivo, 0.75 h. In kind it is organism-based, Artery. Details: dose 10 mg/kg, route intraperitoneal.
Series [10] deals with Rattus norvegicus. The series is described as follows: Toxicity in […] normotensive Wistar rat assessed as mean arterial pressure at 10 mg/kg, ip after 60 mins (reference value: 95.07 +/- 1.973 mmHg). In kind it is organism-based, Artery. Details: dose 10 mg/kg, route intraperitoneal. Conditions: in vivo, 1 h.
In series [11] the test system is Rattus norvegicus. Description: Toxicity in anesthetized-normotensive Wistar rat assessed as heart rate at 15 mg/kg, ip measured immediately at 0 min (reference value: 316.62 +/- 9.643 bpm). It is filed as organism-based. Further details: dose 15 mg/kg, route intraperitoneal. Conditions: in vivo, 0 h.
The test system of series [12] is Rattus norvegicus. The series is described as follows: Toxicity in anesthetized-normotensive Wistar rat assessed as heart rate at 15 mg/kg, ip after 15 mins (reference value: 313.93 +/- 9.912 bpm). It is filed as organism-based. Further details: dose 15 mg/kg, route intraperitoneal. Conditions: in vivo, 0.25 h.
In series [13] the test system is Rattus norvegicus. Description: Toxicity in anesthetized-normotensive Wistar rat assessed as heart rate at 15 mg/kg, ip after 30 mins (reference value: 317.68 +/- 7.631 bpm). Details: dose 15 mg/kg, route intraperitoneal. Conditions: in vivo, 0.5 h. In kind it is organism-based.
Series [14] has as its system Rattus norvegicus. The series is described as follows: Toxicity in anesthetized-normotensive Wistar rat assessed as heart rate at 15 mg/kg, ip after 60 mins (reference value: 314.96 +/- 9.442 bpm). In kind it is organism-based. Further details: dose 15 mg/kg, route intraperitoneal. Conditions: in vivo, 1 h.
Series [15] relates to Rattus norvegicus. Description: Antiarrhythmic activity in barium chloride-induced Wistar rat assessed as increase in appearance time of arrhythmia at 15 mg/kg, ip administered 60 mins before barium chloride challenge (reference value: 129.4 +/- 4.373 sec). In kind it is functional, Heart. Particulars: route intraperitoneal.
The test system of series [16] is Rattus norvegicus. The series is described as follows: Antiarrhythmic activity in barium chloride-induced Wistar rat assessed as increase in mortality time at 15 mg/kg, ip administered 60 mins before barium chloride challenge (reference value: 682.8 +/- 9.656 secs). In kind it is functional, Heart. Conditions: route intraperitoneal.
For series [17], the system named is Rattus norvegicus. The series is described as follows: Toxicity in anaesthetized-Wistar rat assessed as Q-T ECG interval at 15 mg/kg, ip after 45 mins (reference value: 78.8 +/- 0.927 ms). In kind it is organism-based. Details: dose 15 mg/kg, route intraperitoneal. Particulars: in vivo, 0.75 h.
Series [18] has as its system Rattus norvegicus. The series is described as follows: Toxicity in anaesthetized-Wistar rat assessed as Q-T ECG interval at 15 mg/kg, ip after 60 mins (reference value: 79.7 +/- 0.965 ms). Conditions: in vivo, 1 h. Details: dose 15 mg/kg, route intraperitoneal. It is filed as organism-based.

Consider `CC(C)NCC(O)COc1cccc2ccccc12` (stereo not drawn) [PROPRANOLOL], for which the Activity in the series on Rattus norvegicus [1] was 195.12 mmHg; in the series with Rattus norvegicus [2] it was 171.73 mmHg; with Rattus norvegicus [3] it was 148.53 mmHg; in the series with Rattus norvegicus [4], 120.32 mmHg; with Rattus norvegicus [5], 152.26 mmHg; with Rattus norvegicus [6], 92.56 mmHg. Also, the Activity was 79.43 mmHg in the series with Rattus norvegicus [7], 62.96 mmHg in the series with Rattus norvegicus [8], 65.87 mmHg with Rattus norvegicus [9] and 70.21 mmHg with Rattus norvegicus [10].

As to `C=C[C@H]1CN2CC[C@H]1C[C@@H]2[C@@H](O)c1ccnc2ccc(OC)cc12` [QUINIDINE], the Activity was found to be 311.8 bpm in the series on Rattus norvegicus [11]; 285.16 bpm with Rattus norvegicus [12]; 246.18 bpm with Rattus norvegicus [13]; 286.32 bpm in the series with Rattus norvegicus [14]; 91.3 min in the series with Rattus norvegicus [17]; 90.6 ms in the series on Rattus norvegicus [18]. For the same molecule, the Time came out at 394.8 s in the series with Rattus norvegicus [15] and 1281.8 s with Rattus norvegicus [16].
